Assay results: publication PMC9467586, “Development of novel 9-O-substituted-13-octylberberine derivatives as potential anti-hepatocellular carcinoma agents” (Journal of Enzyme Inhibition and Medicinal Chemistry, 2022)

Legend:
Sk-Hep-1 cells = experiment: In vitro antiproliferative MTT assay, Sk-Hep-1 cells; assay type: cell-based, human; settings: Homo sapiens, SK-HEP1, 72 h, mean ± SD (n = 3)
Method: (§1) HepG2, Sk-Hep-1, Huh-7, Hep3B and L-02 cells were purchased from Nanjing Key Gen Biotech Co. Ltd. (Nanjing, China). The cytotoxicity of test compounds was determined using an MTT assay. Briefly, the cell lines were incubated at 37 °C in a humidified 5% CO2 incubator for 24 h in 96-microwell plates. After medium removal, 100 μL of culture medium with 0.1% DMSO containing test compounds at different concentrations was added to each well and incubated at 37 °C for another 72 h. The MTT (5 mg/mL in PBS) was added and incubated for another 4 h, the optical density was detected with a microplate reader at 490 nm. The IC50 values were calculated according to the dose-dependent curves. All the experiments were repeated in at least three independent experiments.

HepG2 cells [1] = experiment: Mitochondrial membrane potential (MMP) measurement with JC-1; assay type: cell-based, human; settings: 72 h (control 1.90%)
Method: HepG2 cells were incubated with 6k as described above. After incubation for 72 h, the cells were washed in PBS and resuspended in 500 μL JC-1 incubation buffer at 37 °C for 15 min. Then, […] was immediately assessed for a red fluorescence using a microplate reader (ELx80, Bio-Tek, USA). The fluorescent signal of monomers was measured with an excitation wavelength of 488 nm. The percentage of cells with healthy or collapsed mitochondrial membrane potentials was monitored by flow cytometry analysis (BectoneDickinson, San Jose, CA, USA).

HepG2 cells [2] = experiment: In vitro antiproliferative MTT assay, HepG2 cells; assay type: cell-based, human; settings: Homo sapiens, 72 h, mean ± SD (n = 3), read-out: IC50 (antiproliferative activity against HepG2 cells)
Method: as §1

HepG2 cells [3] = experiment: Annexin V-FITC/PI apoptosis assay, flow cytometry; assay type: cell-based, human; settings: 72 h (control 6.28%)
Method: Briefly, after treatment with or without 6k at indicated concentrations for 72 h, the cells were washed twice in PBS, centrifuged and resuspended in 500 μL AnnexinV binding buffer. The cells were then harvested, washed and stained with 5 μL Annexin V-FITC and 5 μL PI in the darkness for 15 min. Apoptosis was analysed using a FACS Calibur flow cytometer (BectoneDickinson, San Jose, CA, USA).

duplex DNA (F10T) = experiment: FRET-melting assay, F10T (duplex DNA model); assay type: binding; settings: 2 μM compounds
[4] = test system: Bax, Bcl-2, cytochrome C and caspase-3; experiment: Western blot of apoptosis-related proteins; assay type: cell-based, human; settings: HepG2, 72 h, concentration-dependent
Method: HepG2 cells were incubated with different doses of 6k for 72 h. Cells were collected, centrifuged, and washed two times with ice-cold PBS. The pellet was then re-suspended in lysis buffer. After the cells were lysed on ice for 20 min, lysates were centrifuged at 13000 g at 4 °C for 15 min. The protein concentration in the supernatant was determined using the BCA protein assay reagents. Equal amounts of protein (20 μg) were resolved using sodium dodecyl sulfate-polyacrylamide gel electrophoresis (SDS-PAGE) (10–12% acrylamide gels) and transferred to PVDF membrane. Membranes were blocked for 1 h at room temperature. Membranes were then incubated with primary antibodies against p-cdc25c, cdc2, cyclin B1, Bax, Bcl-2, cytochrome C, caspase-3, VDAC1 and β-actin, the membrane being gently rotated overnight at 4 °C. The bound antibodies were detected using horseradish peroxidase (HRP)-conjugated second antibodies and visualised by the enhanced chemiluminescent reagent.

CCCCCCCCc1c2[n+](cc3c(OCCCCCCCCN4CCN(C)CC4)c(OC)ccc13)CCc1cc3c(cc1-2)OCO3.[Br-] [Compound 6k, 10-Methoxy-9-((8–(4-methylpiperazin-1-yl)octyl)oxy)-13-octyl-5,6-dihydro-[1,3]dioxolo[4,5-g]isoquinolino[3,2-a]isoquinolin-7-ium bromide]
IC50 (Sk-Hep-1 cells): 1690 ± 70 nM
percentage of cells with green fluorescence (JC-1) (HepG2 cells [1]; HepG2, 0.25 μM): 10.33%
percentage of cells with green fluorescence (JC-1) (HepG2 cells [1]; HepG2, 1.0 μM): 37.52%
IC50 (HepG2 cells [2]): 760 ± 60 nM
total apoptotic cells (Q2 + Q3) (HepG2 cells [3]; HepG2, 0.25 μM): 16.42%
total apoptotic cells (Q2 + Q3) (HepG2 cells [3]; HepG2, 0.50 μM): 34.29%
total apoptotic cells (Q2 + Q3) (HepG2 cells [3]; HepG2, 1.0 μM): 59.17%
ΔTm(B) = Tm(F10T + compound) - Tm(F10T) (duplex DNA (F10T)): 0.8 °C
Bax expression [4]: upregulated Bax expression
Bcl-2 expression [4]: downregulated Bcl-2 expression
caspase-3 [4]: activated caspase-3
cytochrome C release [4]: promoted cytochrome C release
